Assay results: patent US8039614B2, “4' -C-substituted-2-haloadenosine derivative” (Yamasa Corporation, priority 2004, dated 2011)
Values belong to the compound of their own block, whether it stands above or below them.

Columns and labels:
[1] = system: HIV-1 MDR drug-resistant strain; assay: MAGI assay using HeLa CD4/LTR-beta-Gal cells, drug-resistant strain MDR; format: cell-based; conditions: Human immunodeficiency virus 1, HeLa, 48 h, read-out: Anti-HIV-1MDR activity (EC50, μM)
Description: (§1) • 1. A test agent (100 μl) is diluted on a 96-well microplate. MT-4 cells infected with HIV-1 (IIIb strain; 100 TCID50) and non-infected MT-4 cells are added to the microplate such that the number of cells in each well becomes 10,000. The cells are cultured at 37° C. for five days. • 2. MTT (20 μl, 7.5 mg/ml) is added to each well, and the cells are further cultured for 2-3 hours. • 3. The cultured medium (120 μl) is sampled, and MTT terminating solution (isopropanol containing 4% Triton X-100 and 0.04N HCl) is added to the sample. The mixture is stirred to dissolve formed formazan. The absorbance at 540 nm of the solution is measured. Since the absorbance is proportional to the number of viable cells, the test agent concentration at which a half value of the absorbance is measured in a test using infected MT-4 cells represents EC50, whereas the test agent concentration at which a half value of the absorbance is measured in a test using non-infected MT-4 cells represents CC50. 2) MAGI Assay Using HeLa CD4/LTR-beta-Gal Cells • 1. HeLa CD4/LTR-beta-Gal cells are added to 96 wells such that the number of cells in each well is 10,000. After 12-24 hours, the culture medium is removed, and a diluted test agent (100 μl) is added. • 2. A variety of HIV strains (wild strain: WT, drug-resistant strain: MDR and M184V; each being equivalent to 50 TCID50) are added, and the cells are further cultured for 48 hours. • 3. The cells are fixed for five minutes using PBS supplemented with 1% formaldehyde and 0.2% glutaraldehyde. • 4. After the fixed cells are washed with PBS three times, the cells are stained with 0.4 mg/ml X-Gal for one hour, and the number of blue-stained cells of each well is counted under a transmission stereoscopic microscope. The test agent concentration at which blue-stained cells decrease to 50% in number represents EC50. <Results> Anti-human-immunodeficiency Virus (HIV) Activity and Cytotoxicity 1) MTT Method Using MT-4 Cells

[2] = target: T1, Calf-intestine-derived adenosine deaminase (Bos taurus, UniProt P56658); assay: Stability against adenosine deaminase (HPLC); format: in vitro ADME; conditions: 0.01 unit enzyme, 0.5 mM compound, Tris-HCl pH 7.5, 25° C., FIG. 1
T1 construct: Calf-intestine-derived adenosine deaminase; from tissue; host or cells: calf intestine
T1 sequence (P56658 1-363): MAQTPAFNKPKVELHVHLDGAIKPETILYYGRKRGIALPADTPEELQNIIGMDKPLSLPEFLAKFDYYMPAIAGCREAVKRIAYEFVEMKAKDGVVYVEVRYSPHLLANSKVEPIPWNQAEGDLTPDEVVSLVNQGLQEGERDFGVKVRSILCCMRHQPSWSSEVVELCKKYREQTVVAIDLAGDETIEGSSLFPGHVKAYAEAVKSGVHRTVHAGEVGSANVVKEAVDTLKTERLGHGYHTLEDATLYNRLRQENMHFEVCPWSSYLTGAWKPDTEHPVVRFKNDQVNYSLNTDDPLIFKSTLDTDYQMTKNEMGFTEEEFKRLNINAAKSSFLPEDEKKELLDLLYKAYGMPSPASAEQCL
Description: <Test Methods> Stability of Compound 4 Against Adenosine Deaminase Calf-intestine-derived adenosine deaminase (0.01 unit) was added to 0.5 ml of 0.5-mM compound 4 (50 mM Tris-HCl buffered solution (pH 7.5)), and the mixture was incubated at 25° C. A 5-μl aliquot of the reaction mixture was removed every 15 minutes, followed by analysis by means of HPLC (high performance liquid chromatography). The peak area of a test drug at reaction time 0 was taken as 100%, and the curve was monitored over time. The HPLC analysis was performed under the following conditions. Column: YMC-Pack ODS-A (250×6.0 mm) Eluent: 15% MeCN-50 mM TEAA Flow rate: 1 mL/min. Temperature: 30° C. Detection: 260 nm

[3] = system: HIV-1 wild strain (WT); assay: MAGI assay using HeLa CD4/LTR-beta-Gal cells, wild strain; format: cell-based; conditions: Human immunodeficiency virus 1, 48 hours, read-out: Anti-HIV-1wild activity (EC50)
Description: as §1

[4] = MTT method using non-infected MT-4 cells (cytotoxicity); format: cell-based; conditions: human
Description: (§2) 1) MTT Method Using MT-4 Cells
as §1

[5] = system: HIV-1 M184V drug-resistant strain; assay: MAGI assay using HeLa CD4/LTR-beta-Gal cells, drug-resistant strain M184V; format: cell-based; conditions: Human immunodeficiency virus 1, HeLa, 48 h, read-out: Anti-HIV-1M184V activity (EC50, μM)
Description: as §1

[6] = system: HIV-1 (IIIb strain); assay: MTT method using MT-4 cells infected with HIV-1 (anti-HIV activity); format: cell-based; conditions: for EC50: MT-4 cells infected with HIV-1 IIIb, MTT, five days; for Selectivity Index (CC50/EC50): MT-4 cells
Description: as §2, §1

[7] = system: ICR mice; assay: In vivo acute toxicity test in ICR mice; conditions: for Survisors/Total: ICR mice, seven days
Description: <Test methods> In vivo Acute Toxicity Test of Compound 4
Groups of ICR mice (6 weeks of age, male), each group consisting of 8 mice, were given a test drug (Compound 4; dissolved or suspended in saline) via oral route or intravenous injection in amounts up to 100 mg/kg. The occurrence of death and body weight of each mouse were monitored for seven days.

[8] = Stability under acidic conditions (HPLC); format: physicochemical; conditions: NaCl/hydrochloric acid test solution, 37° C.
Description: <Test Methods> Stability of Compound 4 Under Acidic Conditions
Compound 4 (2.9 mg) or 2′,3′-dideoxyadenosine (ddAdo: 2.4 mg) was dissolved in 10 ml of a 37° C. test solution (which had been prepared by adding 2.0 g of sodium chloride and 7.0 ml of hydrochloric acid into water to make a solution of 1,000 ml), followed by incubation at the same temperature (37° C.).
A 100-μl aliquot of the reaction mixture was removed therefrom and neutralized with aqueous 0.1-N sodium hydroxide solution, followed by analysis of 5 μl by means of HPLC. The HPLC analysis conditions are the same as those employed in Test Example 2.

[9] = system: non-infected MT-4 cells; assay: MTT method using non-infected MT-4 cells (cytotoxicity); format: cell-based; conditions: non-infected MT-4 cells, MTT, five days
Description: as §2, §1

[10] = Human immunodeficiency virus 1, MT4, 120 h

Compound: C#C[C@]1(CO)O[C@@H](n2cnc3c(N)nc(F)nc32)C[C@@H]1O [Compound 4, 2′-deoxy-4′-C-ethynyl-2-fluoroadenosine]
EC50 [1]: 0.000145 µM | Deamination by adenosine deaminase [2]: not at all deaminated | EC50 [3]: 0.2 nM | CC50 at 5 days [4]: 7500 nM | EC50 [5]: 0.00311 µM | EC50 [6, 10]: 0.068 nM | Selectivity Index (CC50/EC50) [6]: 110,000 | Survisors/Total ([7]; Intravenous, 1 mg/kg single dose): 8/8 | Survisors/Total ([7]; Intravenous, 3 mg/kg single dose): 8/8 | Survisors/Total ([7]; Intravenous, 10 mg/kg single dose): 8/8 | Survisors/Total ([7]; Intravenous, 30 mg/kg single dose): 8/8 | Survisors/Total ([7]; Intravenous, 100 mg/kg single dose): 8/8 | Survisors/Total ([7]; Oral, 1 mg/kg single dose): 8/8 | Survisors/Total ([7]; Oral, 3 mg/kg single dose): 8/8 | Survisors/Total ([7]; Oral, 10 mg/kg single dose): 8/8 | Survisors/Total ([7]; Oral, 30 mg/kg single dose): 8/8 | Survisors/Total ([7]; Oral, 100 mg/kg single dose): 8/8 | Acute toxicity in mice (conclusion) ([7]; mouse, in vivo): does not exhibit acute toxicity | Survival of mice ([7]; mouse, in vivo): survived | Weight loss and pathological symptoms such as diarrhea ([7]; mouse, in vivo): not observed | Degradation under acidic conditions ([8]; FIG. 2): degraded very slowly

Compound: N#C[C@]1(CO)O[C@@H](n2cnc3c(N)nc(F)nc32)C[C@@H]1O [Compound 8, 4′-C-cyano-2′-deoxy-2-fluoroadenosine]
EC50 [1]: 0.95 µM | EC50 [3]: 120 nM | EC50 [5]: 4.8 µM

Compound: C#C[C@]1(CO)O[C@@H](n2cnc3c(N)nc(Cl)nc32)C[C@@H]1O [Compound 9, 2-chloro-2′-deoxy-4′-C-ethynyladenosine]
EC50 [1]: 0.0084 µM | EC50 [3]: 1.9 nM | EC50 [5]: 0.01 µM

Compound: C#C[C@]1(CO[PH](=O)O)O[C@@H](n2cnc3c(N)nc(F)nc32)C[C@H]1O [Compound 10, 2′-deoxy-4′-C-ethynyl-2-fluoroadenosine 5′-H-phosphonate]
EC50 [1]: 0.003 µM | EC50 [3]: 3.4 nM | EC50 [5]: 0.062 µM

Compound: C#C[C@@]1(CO)C=C[C@H](n2cnc3c(N)nc(F)nc32)O1 [Compound 13, 2′,3′-didehydro-2′,3′-dideoxy-4′-C-ethynyl-2-fluoroadenosine]
EC50 [1]: 0.15 µM | EC50 [3]: 800 nM | EC50 [5]: 1.8 µM

Compound: C#C[C@]1(CO)O[C@@H](n2cnc3c(N)ncnc32)C[C@@H]1O [EdAdo, 2′-deoxy-4′-C-ethynyladenosine, reference compound]
EC50 [1]: 0.0062 µM | Deamination by adenosine deaminase [2]: deaminated | EC50 [3]: 8 nM | CC50 at 5 days [4]: 16000 nM | EC50 [5]: 0.047 µM | EC50 [6, 10]: 9.8 nM | Selectivity Index (CC50/EC50) [6]: 1,630

Compound: C#C[C@]1(CO)O[C@@H](n2cnc3c(N)nc(N)nc32)C[C@@H]1O [EdDAP, 9-(4-C-ethynyl-2-deoxy-ribopentofuranosyl)-2,6-diaminopurine]
CC50 [9]: 900 nM | EC50 [6]: 0.34 nM

Fraction degraded under acidic conditions ([8]; in about five minutes, FIG. 3): About 98%
Compound: Nc1ncnc2c1ncn2[C@H]1CC[C@@H](CO)O1 [ddAdo, 2′,3′-dideoxyadenosine, reference compound]
